{"source": "patent US12509444B2", "about": "“Compounds and methods for CD73 modulation and indications therefor” (Plexxikon Inc., priority 2019, dated 2025)", "biological_target": "T1, Human CD73 (amino acid residues 27-549) (Homo sapiens, UniProt P21589)", "T1 construct": "Human CD73 (amino acid residues 27-549); His tag (N); made in house; host or cells: E. coli", "T1 sequence (P21589 27-549)": "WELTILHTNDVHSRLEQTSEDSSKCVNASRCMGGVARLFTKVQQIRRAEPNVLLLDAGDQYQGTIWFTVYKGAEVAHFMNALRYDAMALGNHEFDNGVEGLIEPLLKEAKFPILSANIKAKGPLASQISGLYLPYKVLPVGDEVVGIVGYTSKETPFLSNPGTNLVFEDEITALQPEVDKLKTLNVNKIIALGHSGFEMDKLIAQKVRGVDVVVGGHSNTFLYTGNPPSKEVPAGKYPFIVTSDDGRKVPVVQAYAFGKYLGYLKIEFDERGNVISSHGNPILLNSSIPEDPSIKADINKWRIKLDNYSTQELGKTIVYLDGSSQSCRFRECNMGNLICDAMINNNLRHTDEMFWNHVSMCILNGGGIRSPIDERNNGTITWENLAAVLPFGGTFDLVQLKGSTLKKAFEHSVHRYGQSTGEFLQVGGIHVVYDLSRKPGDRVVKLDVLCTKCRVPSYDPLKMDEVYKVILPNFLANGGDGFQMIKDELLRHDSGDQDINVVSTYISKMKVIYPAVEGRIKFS", "assay": "CD73 enzymatic assay (luciferase-based indirect assay, CellTiter-Glo)", "format": "biochemical", "details": "0.4 nM CD73, 150 μM AMP, 1 hour at room temperature", "description": "CD73 enzymatic activity was measured in a luciferase-based indirect assay using CellTiter-Glo® system from Promega. The luciferase reaction in the presence of ATP is inhibited by AMP, a primary substrate of CD73. Addition of CD73 enzyme to the reaction converts AMP to adenosine, and release the inhibition, producing a luminescent signal. Inhibition of CD73 leads to the decrease of this luminescent signal.\nHuman CD73 (amino acid residues 27-549) with N-Terminal His tag was purified in E. coli. All the assay components were prepared in 50 mM HEPEs buffer (pH 7.4) with 0.01% Tween® 20. The CD73 enzymatic assay was performed using 0.4 nM CD73 and 150 μM AMP. 9.5 μL of CD73 protein and 9.5 μL of AMP were added to the wells of a 384 well plate containing 1 μL of various concentrations of test compound or DMSO vehicle and incubated for 1 hour at room temperature. 16 wells containing CD73, AMP and 5% DMSO served as high control. 16 wells containing AMP and 5% DMSO served as low control. Enzymatic reaction was stopped and AMP level was measured indirectly by adding 5 μL of CellTiter-Glo® 2.0 reagent and 5 μL of ATP with a final concentration of 1 μM. Following incubation of the plate at room temperature for 30 minutes, luminescent signal was read on a Tecan plate reader. The percentage inhibition at individual concentrations relative to high and low controls was calculated. The data were analyzed by using nonlinear regression to generate IC50 values.", "note": "pIC50: −log10 of the molar value."}
{"molecule": "O=C(Nc1ccc(C(F)(F)F)cc1)N[C@@H]1CCN(c2cn[nH]c(=O)c2Cl)C1", "note": "[P-0043, (R)-1-(1-(5-chloro-6-oxo-1,6-dihydropyridazin-4-yl)pyrrolidin-3-yl)-3-(4-(trifluoromethyl)phenyl)urea]", "values": [{"measurement": "pIC50", "value": "5.00 to 9.00"}]}
{"molecule": "CC(C)COC(=O)N[C@@H]1CCN(c2cn[nH]c(=O)c2Cl)C1", "note": "[P-0050, isobutyl (R)-(1-(5-chloro-6-oxo-1,6-dihydropyridazin-4-yl)pyrrolidin-3-yl)carbamate]", "values": [{"measurement": "pIC50", "value": "5.00 to 9.00"}]}
{"molecule": "Cn1cc(NC(=O)N[C@@H]2CCN(c3cn[nH]c(=O)c3Cl)C2)cn1", "note": "[P-0014, (R)-1-(1-(5-chloro-6-oxo-1,6-dihydropyridazin-4-yl)pyrrolidin-3-yl)-3-(1-methyl-1H-pyrazol-4-yl)urea]", "values": [{"measurement": "pIC50", "value": "4.00 to 5.00"}]}
{"molecule": "CN(C(=O)OC(C)(C)C)C1CCN(c2cn[nH]c(=O)c2Cl)C1", "note": "(stereo not shown) [P-0066, tert-butyl (1-(5-chloro-6-oxo-1,6-dihydropyridazin-4-yl)pyrrolidin-3-yl)(methyl)carbamate]", "values": [{"measurement": "pIC50", "value": "4.00 to 5.00"}]}
{"molecule": "Cc1n[nH]c(=O)c(Cl)c1N1CC[C@@H](NC(=O)OC2CCCC2)C1", "note": "[P-0082, cyclopentyl (R)-(1-(5-chloro-3-methyl-6-oxo-1,6-dihydropyridazin-4-yl)pyrrolidin-3-yl)carbamate]", "values": [{"measurement": "pIC50", "value": "4.00 to 5.00"}]}
{"molecule": "COc1ccc(CNC(=O)N[C@@H]2CCN(c3cn[nH]c(=O)c3Cl)C2)cc1OC", "note": "[P-0040, (R)-1-(1-(5-chloro-6-oxo-1,6-dihydropyridazin-4-yl)pyrrolidin-3-yl)-3-(3,4-dimethoxybenzyl)urea]", "values": [{"measurement": "pIC50", "value": "4.00 to 5.00"}]}
{"molecule": "O=C(N[C@@H]1CCN(c2cn[nH]c(=O)c2Cl)C1)OC1CCOC1", "note": "(stereo partly drawn) [P-0055, tetrahydrofuran-3-yl ((R)-1-(5-chloro-6-oxo-1,6-dihydropyridazin-4-yl)pyrrolidin-3-yl)carbamate]", "values": [{"measurement": "pIC50", "value": "5.00 to 9.00"}]}
{"molecule": "O=C(NCc1ccccc1)N[C@@H]1CCN(c2cn[nH]c(=O)c2Cl)C1", "note": "[P-0031, (R)-1-benzyl-3-(1-(5-chloro-6-oxo-1,6-dihydropyridazin-4-yl)pyrrolidin-3-yl)urea]", "values": [{"measurement": "pIC50", "value": "4.00 to 5.00"}]}
{"molecule": "CCOc1ccc(NC(=O)N[C@@H]2CCN(c3cn[nH]c(=O)c3Cl)C2)cc1", "note": "[P-0034, (R)-1-(1-(5-chloro-6-oxo-1,6-dihydropyridazin-4-yl)pyrrolidin-3-yl)-3-(4-ethoxyphenyl)urea]", "values": [{"measurement": "pIC50", "value": "4.00 to 5.00"}]}
{"molecule": "O=C(N[C@H]1CCN(c2cn[nH]c(=O)c2Cl)C1)OC1CCCCC1", "note": "[P-0025, cyclohexyl (S)-(1-(5-chloro-6-oxo-1,6-dihydropyridazin-4-yl)pyrrolidin-3-yl)carbamate]", "values": [{"measurement": "pIC50", "value": "5.00 to 9.00"}]}
{"molecule": "O=C(NCC1CCOCC1)N[C@@H]1CCN(c2cn[nH]c(=O)c2Cl)C1", "note": "[P-0008, (R)-1-(1-(5-chloro-6-oxo-1,6-dihydropyridazin-4-yl)pyrrolidin-3-yl)-3-((tetrahydro-2H-pyran-4-yl)methyl)urea]", "values": [{"measurement": "pIC50", "value": "5.00 to 9.00"}]}
{"molecule": "CC(C)(C)OC(=O)N[C@@H]1CCN(c2cn[nH]c(=O)c2)C1", "note": "[P-0037, tert-butyl (R)-(1-(6-oxo-1,6-dihydropyridazin-4-yl)pyrrolidin-3-yl)carbamate]", "values": [{"measurement": "pIC50", "value": "4.00 to 5.00"}]}
{"molecule": "CC(C)(C)OC(=O)N[C@@H]1CCN(c2cn[nH]c(=O)c2Br)C1", "note": "[P-0011, tert-butyl (R)-(1-(5-bromo-6-oxo-1,6-dihydropyridazin-4-yl)pyrrolidin-3-yl)carbamate]", "values": [{"measurement": "pIC50", "value": "5.00 to 9.00"}]}
{"molecule": "CN(C)c1ccc(NC(=O)N[C@@H]2CCN(c3cn[nH]c(=O)c3Cl)C2)cc1", "note": "[P-0045, (R)-1-(1-(5-chloro-6-oxo-1,6-dihydropyridazin-4-yl)pyrrolidin-3-yl)-3-(4-(dimethylamino)phenyl)urea]", "values": [{"measurement": "pIC50", "value": "4.00 to 5.00"}]}
{"molecule": "CCOC(=O)CCNC(=O)N[C@@H]1CCN(c2cn[nH]c(=O)c2Cl)C1", "note": "[P-0026, ethyl (R)-3-(3-(1-(5-chloro-6-oxo-1,6-dihydropyridazin-4-yl)pyrrolidin-3-yl)ureido)propanoate]", "values": [{"measurement": "pIC50", "value": "4.00 to 5.00"}]}
{"molecule": "Cc1occc1NC(=O)N[C@@H]1CCN(c2cn[nH]c(=O)c2Cl)C1", "note": "[P-0012, (R)-1-(1-(5-chloro-6-oxo-1,6-dihydropyridazin-4-yl)pyrrolidin-3-yl)-3-(2-methylfuran-3-yl)urea]", "values": [{"measurement": "pIC50", "value": "5.00 to 9.00"}]}
{"molecule": "O=C(NCC1CC1)N[C@@H]1CCN(c2cn[nH]c(=O)c2Cl)C1", "note": "[P-0083, (R)-1-(1-(5-chloro-6-oxo-1,6-dihydropyridazin-4-yl)pyrrolidin-3-yl)-3-(cyclopropylmethyl)urea]", "values": [{"measurement": "pIC50", "value": "4.00 to 5.00"}]}
{"molecule": "O=C(NCC1CCCCC1)N[C@@H]1CCN(c2cn[nH]c(=O)c2Cl)C1", "note": "[P-0007, (R)-1-(1-(5-chloro-6-oxo-1,6-dihydropyridazin-4-yl)pyrrolidin-3-yl)-3-(cyclohexylmethyl)urea]", "values": [{"measurement": "pIC50", "value": "5.00 to 9.00"}]}
{"molecule": "CCOc1cccc(NC(=O)N[C@@H]2CCN(c3cn[nH]c(=O)c3Cl)C2)c1", "note": "[P-0035, (R)-1-(1-(5-chloro-6-oxo-1,6-dihydropyridazin-4-yl)pyrrolidin-3-yl)-3-(3-ethoxyphenyl)urea]", "values": [{"measurement": "pIC50", "value": "4.00 to 5.00"}]}
{"molecule": "C[C@H]1CN(c2cn[nH]c(=O)c2Cl)C[C@@H]1NC(=O)NC1CCCC1", "note": "[P-0061, 1-((3R,4S)-1-(5-chloro-6-oxo-1,6-dihydropyridazin-4-yl)-4-methylpyrrolidin-3-yl)-3-cyclopentylurea]", "values": [{"measurement": "pIC50", "value": "5.00 to 9.00"}]}
{"molecule": "O=C(NC1C2CC3CC(C2)CC1C3)N[C@@H]1CCN(c2cn[nH]c(=O)c2Cl)C1", "note": "(stereo partly drawn) [P-0087, (R)-1-(adamantan-2-yl)-3-(1-(5-chloro-6-oxo-1,6-dihydropyridazin-4-yl)pyrrolidin-3-yl)urea]", "values": [{"measurement": "pIC50", "value": "5.00 to 9.00"}]}
{"molecule": "CN(C(=O)NC1CCN(c2cn[nH]c(=O)c2Cl)C1)C1CCCC1", "note": "(stereo not shown) [P-0079, 3-(1-(5-chloro-6-oxo-1,6-dihydropyridazin-4-yl)pyrrolidin-3-yl)-1-cyclopentyl-1-methylurea]", "values": [{"measurement": "pIC50", "value": "5.00 to 9.00"}]}
{"molecule": "O=C(NCC1CCS(=O)(=O)C1)N[C@@H]1CCN(c2cn[nH]c(=O)c2Cl)C1", "note": "(stereo partly drawn) [P-0006, 1-((R)-1-(5-chloro-6-oxo-1,6-dihydropyridazin-4-yl)pyrrolidin-3-yl)-3-((1,1-dioxidotetrahydrothiophen-3-yl)methyl)urea]", "values": [{"measurement": "pIC50", "value": "4.00 to 5.00"}]}
{"molecule": "CC(C)(C)OC(=O)NC1(C(=O)O)CCN(c2cn[nH]c(=O)c2Cl)C1", "note": "(stereo not shown) [P-0070, 3-((tert-butoxycarbonyl)amino)-1-(5-chloro-6-oxo-1,6-dihydropyridazin-4-yl)pyrrolidine-3-carboxylic acid]", "values": [{"measurement": "pIC50", "value": "3.00 to 4.00"}]}
{"molecule": "CN(C(=O)NC1CCN(c2cn[nH]c(=O)c2Cl)C1)C1CCCCC1", "note": "(stereo not shown) [P-0078, 3-(1-(5-chloro-6-oxo-1,6-dihydropyridazin-4-yl)pyrrolidin-3-yl)-1-cyclohexyl-1-methylurea]", "values": [{"measurement": "pIC50", "value": "4.00 to 5.00"}]}
{"molecule": "O=C(NC1CCCCCC1)N[C@@H]1CCN(c2cn[nH]c(=O)c2Cl)C1", "note": "[P-0003, (R)-1-(1-(5-chloro-6-oxo-1,6-dihydropyridazin-4-yl)pyrrolidin-3-yl)-3-cycloheptylurea]", "values": [{"measurement": "pIC50", "value": "5.00 to 9.00"}]}
{"molecule": "O=C(Nc1ccccc1)N[C@@H]1CCN(c2cn[nH]c(=O)c2Cl)C1", "note": "[P-0038, (R)-1-(1-(5-chloro-6-oxo-1,6-dihydropyridazin-4-yl)pyrrolidin-3-yl)-3-phenylurea]", "values": [{"measurement": "pIC50", "value": "5.00 to 9.00"}]}
{"molecule": "COCCCNC(=O)N[C@@H]1CCN(c2cn[nH]c(=O)c2Cl)C1", "note": "[P-0016, (R)-1-(1-(5-chloro-6-oxo-1,6-dihydropyridazin-4-yl)pyrrolidin-3-yl)-3-(3-methoxypropyl)urea]", "values": [{"measurement": "pIC50", "value": "4.00 to 5.00"}]}
